Results reported in patent publication US9593305B2, “Differentiation of pluripotent stem cells” (Janssen Biotech, Inc., priority 2008, dated 2017).

Test system: H1 human embryonic stem cells
Assay: Analogue screening in combination with only GDF-8, SOX17 (Example 21, Tables 18 and 19)
Type: cell-based
Parameters: Sox17 Expression: % of positive control / Cell Number: % of positive control: tested at 2.5 µM
Settings: for Cell Number: Average Total Cell Number / Sox17 Expression: Average Total Intensity / Cell Number: % of positive control / Sox17 Expression: % of positive control: compound in combination with GDF8; for Cell Number: Average Total Cell Number / Sox17 Expression: Average Total Intensity: four assay plates; for Cell Number: % of positive control / Sox17 Expression: % of positive control: relative to Activin A/Wnt3a of the same plate; for Sox17 Expression, % of positive control: 2.5 μM compound with 200 ng/ml GDF-8, four days, Table 19 hits
Procedure, shortened: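 H1 human ES cells treated four days with 200 ng/ml GDF-8 plus 2.5 μM compound (day 1, 0.5% FCS), GDF-8 alone in 2% FCS on day 3; triplicates. Fixed cells immunostained for SOX17 with Hoechst counterstain, imaged at 15 fields/well; total SOX17 intensity normalized to activin A/Wnt3a positive control.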

Compound | Cell Number: Average Total Cell Number | Sox17 Expression: Average Total Intensity | Cell Number: % of positive control [%] | Sox17 Expression: % of positive control [%] | Sox17 Expression, % of positive control
O=C1CCN2CCN(CC2)Cc2cccc(c2)Nc2ncnc(n2)-c2ccnc(c2)NCCCN1 [Compound 13, 1,8,10,12,17,19,23,27,33-Nonaazapentacyclo[25.2.2.1˜3,7˜0.1˜9.13˜1˜14.18˜]tetratriaconta-3(34), 4,6,9(33), 10,12,14(32), 15,17-nonaen-24-one] | 3123 | 2.44E+07 | 20.8 | 7.1 | 
CCN1CC(=O)NCCCc2cccc(c2)-c2ncnc(n2)Nc2cccc(c2)C1 [Compound 15, 14-Ethyl-3,5,7,14,17,27-hexaazatetracyclo[19.3.1.1˜2,6˜1-8.12˜]heptacosa-1(25), 2(27), 3,5,8(26), 9,11,21,23-nonaen-16-one] | 4383 | 3.57E+07 | 28.7 | 10.6 | 
C=CCN1CC(=O)NCCCc2cncc(c2)-c2ncnc(n2)Nc2cccc(c2)C1 [Compound 40, 14-Prop-2-en-1-yl-3,5,7,14,17,23,27-heptaazatetracyclo[19.3.1.1˜2.6˜0.1˜8,12˜]heptacosa-1(25), 2(27), 3,5,8(26), 9,11,21,23-nonaen-16-one] |  |  |  |  | 52.2 % of positive control
O=C1CCN2CCN(CC2)Cc2cc(Cl)cc(c2)Nc2ncnc(n2)-c2cncc(c2)CCCN1 [Compound 34, 5-Chloro-1,8,10,12,16,22,26,32-octaazapentacyclo[24.2.2.1˜3.7˜0.1˜9,13˜0.1˜14.18˜]tritriaconta-3(33), 4,6,9(32), 10,12,14(31), 15,17-nonaen-23-one] |  |  |  |  | 68.0 % of positive control
O=C1NCCCc2cncc(c2)-c2ncnc(n2)Nc2cccc(c2)CN2CCC[C@@H]12 [Compound 18, (18S)-3,5,7,14,20,26,30-Heptaazapentacyclo[22.3.1.1˜2,6˜1˜8,12˜0.0˜14,18˜]triaconta-1(28), 2(30), 3,5,8(29), 9,11,24,26-nonaen-19-one] | 1921 | 2.94E+07 | 13.8 | 9.5 | 
CN1CCCC(=O)NCCCc2cncc(c2)-c2ncnc(n2)Nc2cccc(c2)C1 [Compound 20, 14-Methyl-3,5,7,14,19,25,29-heptaazatetracyclo[21.3.1.1˜2,6˜0.1˜8,12˜]nonacosa-1(27), 2(29), 3,5,8(28), 9,11,23,25-nonaen-18-one] | 2793 | 6.77E+06 | 17.6 | 1.9 | 
CN1CCC(=O)NCCCc2cncc(c2)-c2ncnc(n2)Nc2cccc(c2)C1 [Compound 19, 14-Methyl-3,5,7,14,18,24,28-heptaazatetracyclo[20.3.1.1˜2,6˜0.1˜8,12˜]octacosa-1(26), 2(28), 3,5,8(27), 9,11,22,24-nonaen-17-one] | 12569 | 2.40E+08 | 83.8 | 69.5 | 69.5 % of positive control
CCN1CC(=O)NCCCc2cncc(c2)-c2ncnc(n2)Nc2cc(Cl)cc(c2)C1 [Compound 35, 10-Chloro-14-ethyl-3,5,7,14,17,23,27-heptaazatetracyclo[19.3.1.1˜2,6˜0.1˜8,12]Theptacosa-1(25), 2(27), 3,5,8(26), 9,11,21,23-nonaen-16-one] | 7746 | 1.35E+08 | 48.8 | 38.0 | 33.7 % of positive control
O=C1NCCCc2cncc(c2)-c2ncnc(n2)Nc2cc(Cl)cc(c2)CN2CCCC1C2 (stereo not shown) [Compound 37, 10-Chloro-3,5,7,14,20,26,31-heptaazapentacyclo[22.3.1.1˜2,6˜0.1˜8,12˜0.1˜14,18˜]hentriaconta-1(28), 2(31), 3,5,8(30), 9,11,24,26-nonaen-19-one] | 4187 | 3.11E+07 | 26.4 | 8.8 | 
O=C1NCCCc2cncc(c2)-c2ncnc(n2)Nc2cccc(c2)CN2CCCC1C2 (stereo not shown) [Compound 17, 3,5,7,14,20,26,31-Heptaazapentacyclo[22.3.1.1-2,6˜1˜8,12˜1˜14,18˜]hentriaconta-1(28), 2(31), 3,5,8(30), 9,11,24,26-nonaen-19-one] |  |  |  |  | 23.6 % of positive control
CCN1CC(=O)NCCCc2cc(ccc2F)-c2ncnc(n2)Nc2cc(Cl)cc(c2)C1 [Compound 25, 10-Chloro-14-ethyl-22-fluoro-3,5,7,14,17,27-hexaazatetracyclo[19.3.1.1˜2,6˜0.1˜8,12˜]heptacosa-1(25), 2(27), 3,5,8(26), 9,11,21,23-nonaen-16-one] | 3879 | 1.76E+07 | 24.4 | 5.0 | 
O=C1CCN2CCN(CC2)Cc2cccc(c2)Nc2ncnc(n2)-c2cncc(c2)CCCN1 [Compound 23, 1,8,10,12,16,22,26,32-Octaazapentacyclo[24.2.2.1-3,7˜0.1˜9,13˜0.1˜14,18˜]tritriaconta-3(33), 4,6,9(32), 10,12,14(31), 15,17-nonaen-23-one] | 8758 | 1.16E+08 | 58.4 | 33.7 | 29.8 % of positive control
O=C1NCCCc2cncc(c2)-c2ncnc(n2)Nc2cccc(c2)CN2CCC1CC2 [Compound 22, 1,8,10,12,16,22,30-Heptaazapentacyclo[22.2.2.1-3,7˜0.1˜9,13˜1-14,18˜]hentriaconta-3(31), 4,6,9(30), 10,12,14(29), 15,17-nonaen-23-one] | 6727 | 1.06E+08 | 42.4 | 29.8 | 27.4 % of positive control
CN1CCC(=O)NCCCNc2cccc(c2)-c2ncnc(n2)Nc2cccc(c2)C1 [Compound 21, 14-Methyl-3,5,7,14,18,22,29-heptaazatetracyclo[21.3.1.1˜2,6˜0.1˜8,12˜]nonacosa-1(27), 2(29), 3,5,8(28), 9,11,23,25-nonaen-17-one] | 371 | 2.36E+06 | 2.3 | 0.7 | 
CCN1CC(=O)NCCCc2cc(ccn2)-c2ncnc(n2)Nc2cc(Cl)cc(c2)C1 [Compound 14, 10-Chloro-14-ethyl-3,5,7,14,17,22,27-heptaazatetracyclo[19.3.1.1˜2,6˜1˜8,12˜]heptacosa-1(25), 2(27), 3,5,8(26), 9,11,21,23-nonaen-16-one] | 274 | 1.56E+05 | 2.0 | 0.1 | 
